Here are results for one compound from US4889871A, “Alkoxy-substituted dihydrobenzopyran-2-carboxylate derivatives” (G. D. Searle & Co., priority 1988, dated 1989).

Molecules are shown by their SMILES. Like-named read-outs stand apart in the source and are kept apart here. Where only a bound is given, the exact number is not on record here.

One may read the IC50 as the concentration that inhibits the measured activity by half. High values mean lower potency, low ones higher potency.

One experiment has as its system human neutrophils. In words: Modified Boyden chamber chemotaxis (LTB4, human neutrophils). The experiment is classed as cell-based. As to conditions: Neutrophil. How it is done:
Human neutrophils were isolated from citrated peripheral blood using standard techniques of dextran sedimentation, followed by centrifugation on Histopaque® sterile solution (Sigma) or Ficoll-paque® (Pharmacia) and hypotonic lysis of erythrocytes. A final cell suspension of 3.4×10^6 neutrophils/ml of HEPES-buffered Hanks balanced salt solution (HBSS, pH 7.3) was added to the upper well (0.8 ml) of a modified Boyden chamber (blind well). The lower well (0.2 ml), separated by a polycarbonate membrane (Nuleopore Corp.), contained HBSS or 3×10^-8 M LTB4 in the presence of absence of test compound. Following a 90 minute incubation at 37° C. in 5% CO2 -95% air, cells from the lower well were lysed and nuclei counted in a Model S-Plus-IV Coulter Counter. Percent inhibition was calculated from cell counts corrected for random migration by subtracting the mean of the HBSS control.

The target of a further experiment is T1, LTD4 receptor (Cavia porcellus, UniProt Q2NNR5).
T1 construct: from tissue; host or cells: lung membranes of male Hartley guinea pigs
T1 sequence (Q2NNR5 1-340): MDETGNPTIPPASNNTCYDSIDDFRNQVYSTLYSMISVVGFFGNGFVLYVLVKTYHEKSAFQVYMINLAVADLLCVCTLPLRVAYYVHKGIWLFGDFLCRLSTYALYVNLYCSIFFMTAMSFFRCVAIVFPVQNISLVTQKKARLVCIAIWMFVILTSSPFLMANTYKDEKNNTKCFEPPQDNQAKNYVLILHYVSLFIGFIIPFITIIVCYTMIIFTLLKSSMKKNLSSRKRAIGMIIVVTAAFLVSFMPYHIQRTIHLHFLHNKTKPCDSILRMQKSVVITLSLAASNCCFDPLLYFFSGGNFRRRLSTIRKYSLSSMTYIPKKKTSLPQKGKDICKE
The experiment can be described thus: LTD4 receptor binding assay using guinea pig lung membrane preparations. Here is the method: MEMBRANE PREPARATIONS: For each membrane preparation, 10-11 male Hartley guinea pigs, weighing less than 350 gm, were sacrificed by guillotine. The lungs were rapidly removed and placed in ice-cold 50 mM Trisma 7.0 buffer. After all the lungs were collected, each was probed free of bronchial tissue to at least the level of tertiary branching as observed through a dissecting lamp. The tissue was minced with a razor blade on a damp paper towel and placed into fresh ice-cold Trisma 7.0 buffer. When all the tissues had been processed, they were pooled, drained and weighed. Nine volumes of cold buffer were added and the tissue was polytroned for 6-10 second bursts with a 1 minute cool down period in an ice bath between each burst. The homogenate was filtered through a gauze pad and centrifuged at 1085× g for 15 minutes at 4° C. Supernatants were saved and centrifuged at 40,000× g for 20 minutes at 4° C. This time, supernatants were discarded and the pellets were resuspended in 30-35 ml fresh Trisma 7.0 buffer by 1-10 second bursts with the polytron. The materials were centrifuged again at 40,000× g. Supernatants were again discarded. Each pellet was resuspended again with approximately 7 ml buffer. All this material was pooled into a 100 ml polypropylene container and stirred with a magnetic stirring bar. The tubes were rinsed with small amounts of buffer and the rinse was added to the membrane preparation. The homogenized membranes were aliquoted into 1.5 ml microfuge tubes and frozen at -70° C. Three aliquots were submitted for protein determinations by FPB (fluorescamine protein binding) assay.
Unless otherwise indicated, all binding experiments were performed in a final incubation volume of 250 μl. […] Both materials were received in solutions. […] Both solutions were brought to appropriate assay concentrations by dilution in assay buffer consisting of 50 mM Trisma 7.4 with 5 mM L-cysteine and 20 mM CaCl2. Membranes were also diluted with this assay buffer. […] Diluent was added to all other appropriate control tubes. Incubations were conducted for 30 minutes at 25° C. in a shaking water bath. Termination of the reaction was achieved by pouring the incubate over 2.5 cm Whatman GF/C filters soaked in assay buffer and set over the ports of Millipore filter vacuum manifolds. Filters were rinsed with 4 ml ice cold assay buffer 3 times. The filters were removed, placed in 10 ml Aquasol scintillation cocktail and allowed to cool in the dark for 2 hours prior to counting. All samples were corrected for background and isotope decay before converting DPM determination to mass.
These values were logit-transformed and linear regression was performed on the dose-response data. All dose-response sets used to calculate IC50 values contained data from 3-6 compound concentrations. […] IC50 values were calculated from the regression equation for the line.
male guinea pig lung homogenate which was aliquoted and stored at
-70° C. The particular preparation used to test the compounds of
Protein concentrations in these assays were adjusted
to provide aproximately 0.1 nM receptor in the presence of lnM ^3
HLTD4. Incubation was conducted for 30 min.
at 24° C. and filtration methods were used to separate bound from
tested were intially solubilized in DMSO. Each compound was evaluated at
dose of 10 μM (10^-5 M) in triplicate in 2 separate assays. The

Consider `CCCc1c(OCCCOc2ccc(C(C)=O)c(OC)c2CCC)ccc2c1OC(C(=O)O)CC2` (centres unmarked) [Example 1, 7-[3-(4-acetyl-3-methoxy-2-propylphenoxy)propoxy]-3,4-dihydro-8-propyl-2H-1-benzopyran-2-carboxylic acid], for which it took 3 µM to reach half-maximal inhibition in the experiment on human neutrophils (IC50). Besides, the “Receptor Binding LTD4 IC50” value on LTD4 receptor (Table 1, results are from Table 3, 10^-5 M) is recorded as “Inactive”. In addition, the inhibition at 10 µM on LTD4 receptor (read-out: LTD4 Receptor Binding Activity) is less than 45%; at LTD4 receptor (read-out: LTD4 Receptor Binding Percent Inhibition, Test #1, triplicate, 30 min, 24° C.), 4.07%; at LTD4 receptor (read-out: LTD4 Receptor Binding Percent Inhibition, Test #2, triplicate, 30 min, 24° C.), 16.4%.
